{"source": "patent US10689354B2", "about": "“Aminoazole derivative” (Teijin Pharma Limited, priority 2015, dated 2020)", "key": {"[1]": {"biological_target": "T1, androgen receptor (AR-LBD) (Rattus norvegicus, UniProt P15207)", "T1 construct": "5 μL of 2×AR-LBD/Fluoromone AL Red Complex contained in the kit; purchased Invitrogen", "T1 sequence (P15207 651-882 limits assumed)": "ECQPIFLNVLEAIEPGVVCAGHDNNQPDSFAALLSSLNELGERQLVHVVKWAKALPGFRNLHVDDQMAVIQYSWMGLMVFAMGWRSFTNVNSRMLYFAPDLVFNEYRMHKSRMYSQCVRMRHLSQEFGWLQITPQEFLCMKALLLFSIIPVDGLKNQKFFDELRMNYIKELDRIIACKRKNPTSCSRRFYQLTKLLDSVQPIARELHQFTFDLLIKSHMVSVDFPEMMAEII", "experiment": "Evaluation of androgen receptor affinity (PolarScreen Androgen Receptor Competitor Assay Kit, Red; fluorescence polarization)", "conditions": "22° C. for 5 hours, relative to binding rate of 1 μM DHT, read-out: AR affinity (pEC50) (converted)", "outline": "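pEC50 values reflect tracer displacement from AR-LBD (Fluoromone AL Red complex) measured by fluorescence polarization after 5 h at 22° C, normalized to 1 μM DHT and fitted with a 4-parameter model.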"}, "human androgen receptor": {"biological_target": "T2, human androgen receptor (Homo sapiens, UniProt P10275)", "T2 construct": "expressed in transfected cells; host or cells: HEK293", "T2 sequence (P10275 1-920)": "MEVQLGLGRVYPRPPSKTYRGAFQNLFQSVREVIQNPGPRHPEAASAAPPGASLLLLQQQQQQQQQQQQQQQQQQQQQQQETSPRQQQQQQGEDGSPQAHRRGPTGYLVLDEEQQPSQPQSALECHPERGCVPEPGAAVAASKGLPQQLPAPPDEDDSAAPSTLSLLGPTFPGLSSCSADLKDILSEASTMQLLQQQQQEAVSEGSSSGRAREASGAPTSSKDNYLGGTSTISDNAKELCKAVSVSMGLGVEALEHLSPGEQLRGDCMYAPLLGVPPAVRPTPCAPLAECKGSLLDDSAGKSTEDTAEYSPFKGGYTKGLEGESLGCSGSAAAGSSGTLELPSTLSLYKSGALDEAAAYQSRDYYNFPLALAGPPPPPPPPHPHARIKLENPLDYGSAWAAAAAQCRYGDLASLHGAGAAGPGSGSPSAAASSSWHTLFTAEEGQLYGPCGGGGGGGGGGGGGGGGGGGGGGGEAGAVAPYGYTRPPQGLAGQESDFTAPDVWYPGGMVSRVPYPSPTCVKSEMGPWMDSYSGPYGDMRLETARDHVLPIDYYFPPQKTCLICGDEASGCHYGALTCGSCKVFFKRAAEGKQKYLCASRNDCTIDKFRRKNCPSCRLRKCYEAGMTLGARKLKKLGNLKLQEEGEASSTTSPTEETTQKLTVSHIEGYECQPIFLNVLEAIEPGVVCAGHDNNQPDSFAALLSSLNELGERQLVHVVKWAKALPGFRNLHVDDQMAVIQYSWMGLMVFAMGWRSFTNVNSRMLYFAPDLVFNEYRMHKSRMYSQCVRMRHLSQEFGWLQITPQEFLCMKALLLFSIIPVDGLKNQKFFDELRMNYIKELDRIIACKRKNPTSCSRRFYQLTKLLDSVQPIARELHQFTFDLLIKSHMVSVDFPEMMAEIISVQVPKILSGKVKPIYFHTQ", "experiment": "Reporter assay of an androgen receptor responsive sequence (luciferase, transiently transfected HEK293 cells)", "type": "cell-based", "conditions": "24 hours incubation, relative to activity of 100 nM DHT, read-out: AR transcriptive activity (pEC50) (converted)", "outline": "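HEK293 cells transiently transfected for 3 h with ARE-firefly luciferase, full-length human AR and TK-Renilla plasmids, then exposed to compound for 24 h at 37 °C in 5% charcoal-treated FBS/DMEM. Dual-Glo luminescence read; pEC50 from 4-parameter fit relative to 100 nM DHT.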"}}, "data": [{"smiles": "Cc1sc(N(Cc2ccc(Cl)c(Cl)c2)c2ccc(C#N)cc2)nc1C(=O)NS(C)(=O)=O", "note": "[Compound 100, 2-[4-cyano-N-[(3,4-dichlorophenyl)methyl]anilino]-5-methyl-N-methylsulfonyl-thiazole-4-carboxamide]", "values": [{"measurement": "EC50", "setting": "[1]", "result": 31.6, "unit": "nM"}, {"measurement": "EC50", "setting": "human androgen receptor", "result": 15.8, "unit": "nM"}]}, {"smiles": "COCCCS(=O)(=O)NC(=O)c1nc(N(Cc2ncc(Br)cc2F)c2ccc(C#N)cc2)sc1C", "note": "[Compound 535, 2-[N-[(5-bromo-3-fluoro-2-pyridyl)methyl]-4-cyano-anilino]-N-(3-methoxypropylsulfonyl)-5-methyl-thiazole-4-carboxamide]", "values": [{"measurement": "EC50", "setting": "[1]", "result": 126, "unit": "nM"}, {"measurement": "EC50", "setting": "human androgen receptor", "result": 316, "unit": "nM"}]}, {"smiles": "CS(=O)(=O)NC(=O)c1nc(N(Cc2cc3ccccc3s2)c2ccc(C#N)cc2)sc1Br", "note": "[Compound 609, 2-[N-(benzothiophen-2-ylmethyl)-4-cyano-anilino]-5-bromo-N-methylsulfonyl-thiazole-4-carboxamide]", "values": [{"measurement": "EC50", "setting": "[1]", "result": 31.6, "unit": "nM"}, {"measurement": "EC50", "setting": "human androgen receptor", "result": 39.8, "unit": "nM"}]}, {"smiles": "COCCCS(=O)(=O)NC(=O)c1nc(N(Cc2ccc(OC(F)F)cc2)c2ccc(C#N)cc2)sc1C1CC1", "note": "[Compound 666, 2-[4-cyano-N-[[4-(difluoromethoxy)phenyl]methyl]anilino]-5-cyclopropyl-N-(3-methoxypropylsulfonyl)thiazole-4-carboxamide]", "values": [{"measurement": "EC50", "setting": "[1]", "result": 39.8, "unit": "nM"}, {"measurement": "EC50", "setting": "human androgen receptor", "result": "> 10000", "unit": "nM"}]}, {"smiles": "Cc1oc(N(CCc2ccc(Cl)cc2)Cc2ccccc2OC(F)F)nc1C(=O)NS(C)(=O)=O", "note": "[Compound 543, 2-[2-(4-chlorophenyl)ethyl-[[2-(difluoromethoxy)phenyl]methyl]amino]-5-methyl-N-methylsulfonyl-oxazole-4-carboxamide]", "values": [{"measurement": "EC50", "setting": "[1]", "result": 50.1, "unit": "nM"}, {"measurement": "EC50", "setting": "human androgen receptor", "result": 1260, "unit": "nM"}]}, {"smiles": "Cc1sc(N(Cc2cc(F)cc3cccnc23)c2ccc(C#N)cc2)nc1C(=O)NS(C)(=O)=O", "note": "[Example 174, 2-[4-cyano-N-[(6-fluoro-8-quinolyl)methyl]anilino]-5-methyl-N-methylsulfonyl-thiazole-4-carboxamide]", "values": [{"measurement": "EC50", "setting": "[1]", "result": 100, "unit": "nM"}, {"measurement": "EC50", "setting": "human androgen receptor", "result": 316, "unit": "nM"}]}, {"smiles": "Cc1sc(N(CC23CC4CC(CC(C4)C2)C3)c2ccc(C#N)cc2)nc1C(=O)NS(C)(=O)=O", "note": "[Compound 76, 2-[N-(1-adamantylmethyl)-4-cyano-anilino]-5-methyl-N-methylsulfonyl-thiazole-4-carboxamide]", "values": [{"measurement": "EC50", "setting": "[1]", "result": 50.1, "unit": "nM"}, {"measurement": "EC50", "setting": "human androgen receptor", "result": "> 10000", "unit": "nM"}]}, {"smiles": "COCCCS(=O)(=O)NC(=O)c1nc(N(Cc2cnc(C(F)(F)F)c(Cl)c2)c2ccc(C#N)cc2)sc1C", "note": "[Compound 531, 2-[N-[[5-chloro-6-(trifluoromethyl)-3-pyridyl]methyl]-4-cyano-anilino]-N-(3-methoxypropylsulfonyl)-5-methyl-thiazole-4-carboxamide]", "values": [{"measurement": "EC50", "setting": "[1]", "result": 100, "unit": "nM"}, {"measurement": "EC50", "setting": "human androgen receptor", "result": 1000, "unit": "nM"}]}, {"smiles": "Cc1sc(N(Cc2ccccc2SC(F)F)c2ccc(C#N)cc2)nc1C(=O)NS(C)(=O)=O", "note": "[Compound 79, 2-[4-cyano-N-[[2-(difluoromethylsulfanyl)phenyl]methyl]anilino]-5-methyl-N-methylsulfonyl-thiazole-4-carboxamide]", "values": [{"measurement": "EC50", "setting": "[1]", "result": 15.8, "unit": "nM"}, {"measurement": "EC50", "setting": "human androgen receptor", "result": 50.1, "unit": "nM"}]}, {"smiles": "Cc1nc(CN(c2ccc(C#N)cc2)c2nc(C(=O)NS(C)(=O)=O)c(C)s2)cs1", "note": "[Compound 40, 2-[4-cyano-N-[(2-methylthiazol-4-yl)methyl]anilino]-5-methyl-N-methylsulfonyl-thiazole-4-carboxamide]", "values": [{"measurement": "EC50", "setting": "[1]", "result": 1000, "unit": "nM"}, {"measurement": "EC50", "setting": "human androgen receptor", "result": 501, "unit": "nM"}]}, {"smiles": "Cc1sc(N(CCc2cccs2)Cc2ccccc2)nc1C(=O)NS(C)(=O)=O", "note": "[Example 310, 2-[benzyl-[2-(2-thienyl)ethyl]amino]-5-methyl-N-methylsulfonyl-thiazole-4-carboxamide]", "values": [{"measurement": "EC50", "setting": "[1]", "result": 200, "unit": "nM"}, {"measurement": "EC50", "setting": "human androgen receptor", "result": 2510, "unit": "nM"}]}, {"smiles": "Cc1sc(N(Cc2ccc3c(c2)C(O)CCO3)c2ccc(C#N)cc2)nc1C(=O)NS(C)(=O)=O", "note": "(centres unmarked) [Compound 486, 2-[4-cyano-N-[(4-hydroxychroman-6-yl)methyl]anilino]-5-methyl-N-methylsulfonyl-thiazole-4-carboxamide]", "values": [{"measurement": "EC50", "setting": "[1]", "result": 251, "unit": "nM"}, {"measurement": "EC50", "setting": "human androgen receptor", "result": 251, "unit": "nM"}]}, {"smiles": "Cc1sc(N(CCc2cccnc2)Cc2ccccc2)nc1C(=O)NS(C)(=O)=O", "note": "[Compound 147, 2-[benzyl-[2-(3-pyridyl)ethyl]amino]-5-methyl-N-methylsulfonyl-thiazole-4-carboxamide]", "values": [{"measurement": "EC50", "setting": "[1]", "result": "> 2000", "unit": "nM"}, {"measurement": "EC50", "setting": "human androgen receptor", "result": "> 10000", "unit": "nM"}]}]}
